# Laboratory results reported in patent US20190380957A1, “Protein Hydrogels For Treatment Of Neovascular Disease” (New Jersey Institute of Technology, priority 2018, published 2019).
# Assays:
# [1] = cited from earlier work
# [2] = tested on: human umbilical vein endothelial cells (HUVECs); experiment: Tube formation assay; type: cell-based; settings: positive control, 1.8 mM suramin in media
# Experimental: To assay the anti-angiogenic effect of the self-assembled peptide on endothelial cells, tube formation assays were performed for a range of peptide concentrations. This assay captures the propensity of human ECs or HUVECs to form capillary-like tubules. The process is sensitive to the presence of anti-angiogenic compounds. HUVECs were seeded along with varying concentrations of SL-Kr5 solution on a basement membrane extract matrix to stimulate the formation of capillary tubules. The effects of the peptide on the HUVECs were characterized by measuring the extent of tube formation in terms of total length of tubules formed, number of segments, number of branches, number of junctions, number of nodes, and […] (FIGS. 8A-8F, FIGS. 9A-9D). […]
# Tube Formation Assay: HUVECs (Lonza) were cultured in T75 flasks using an Endothelial Cell Growth Medium BulletKit (Lonza). […] The negative control was supplemented with 298 mM sucrose to match the corresponding highest quantity added to the test conditions, and the positive control contained 1.8 mM suramin. The 96-well plate was then incubated at 37° C. for 4 to 6 hours before imaging on a Nikon Instruments Eclipse Ti-S inverted fluorescence microscope. Tube length was quantified using NIH ImageJ software.
# [3] = target: GRP78 (glucose-regulated protein 78) (Homo sapiens, UniProt P11021); settings: previously shown; cited from earlier work
# GRP78 (glucose-regulated protein 78), sequence (P11021 19-654, species assumed): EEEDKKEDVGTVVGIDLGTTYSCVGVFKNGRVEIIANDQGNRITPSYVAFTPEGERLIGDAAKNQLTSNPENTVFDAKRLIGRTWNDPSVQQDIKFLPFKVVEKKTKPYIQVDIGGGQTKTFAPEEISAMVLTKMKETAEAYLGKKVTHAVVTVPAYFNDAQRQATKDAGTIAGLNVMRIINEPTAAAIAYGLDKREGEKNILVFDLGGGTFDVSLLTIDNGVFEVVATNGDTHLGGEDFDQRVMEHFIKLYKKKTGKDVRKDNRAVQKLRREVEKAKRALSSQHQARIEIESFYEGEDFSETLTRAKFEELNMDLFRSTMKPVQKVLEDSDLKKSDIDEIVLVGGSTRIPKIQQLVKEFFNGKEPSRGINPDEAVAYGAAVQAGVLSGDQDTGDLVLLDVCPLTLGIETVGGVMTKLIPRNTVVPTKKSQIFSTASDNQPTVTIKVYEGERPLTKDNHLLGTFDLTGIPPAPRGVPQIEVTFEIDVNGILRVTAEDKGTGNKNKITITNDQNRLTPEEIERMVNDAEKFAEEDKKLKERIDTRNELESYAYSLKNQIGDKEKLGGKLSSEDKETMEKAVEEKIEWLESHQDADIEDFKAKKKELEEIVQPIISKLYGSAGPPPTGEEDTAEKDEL
# endothelial cells = settings: previously shown; cited from earlier work
# [4] = In vitro cytocompatibility (LIVE/DEAD viability/cytotoxicity kit); type: cell-based; settings: mouse, NIH 3T3 fibroblasts; 800 μM SL-Kr5 in media, day 3; control 85-90%, p<0.05; read-out: viability of cells
# Experimental: (§1) Cytocompatibility was determined by fibroblast cultures treated with increasing concentrations of the peptide in culture media.
# (§2) In Vitro Cytocompatibility: NIH 3T3 fibroblasts were cultured in media (Dulbecco's Modified Eagle Medium supplemented with 10% fetal bovine serum and 1% 100× penicillin streptomycin) in T75 flasks. After the cells reached confluency, they were seeded in a 96-well plate at 2,500 cells/well. Three target conditions (800 μM, 80 μM, and […]; n=6) and a control (media with sucrose; n=6) were tested. For target conditions, the peptide was supplemented in the media, and for the media control, 298 mM sucrose (formulation carrier) was added. Media was changed daily and cytocompatibility was assessed on day 3 using a LIVE/DEAD® viability/cytotoxicity kit. Images were taken on a Nikon Instruments Eclipse Ti-S inverted fluorescence microscope, and cell viability was quantified using NIH ImageJ, a known image analysis and processing software program.
# NIH 3T3 fibroblasts = experiment: as above; type: cell-based; settings: for cytocompatibility compared to the media+sucrose control: day 3
# Experimental: as §1, §2
# Female Wistar rats = experiment: In vivo subcutaneous implantation, histology; design: species or system rat; settings: 200 μL SC implant
compound,measurement,setting,value
K2(SL)6K2,basal level of angiogenesis,[1]; no VEGF mimic,strong basal level of angiogenesis
same,in vivo biodegradation time,[1]; slow biodegradation,6 weeks
Cc1ccc(C(=O)Nc2ccc(S(=O)(=O)O)c3cc(S(=O)(=O)O)cc(S(=O)(=O)O)c23)cc1NC(=O)c1cccc(NC(=O)Nc2cccc(C(=O)Nc3cc(C(=O)Nc4ccc(S(=O)(=O)O)c5cc(S(=O)(=O)O)cc(S(=O)(=O)O)c45)ccc3C)c2)c1 [suramin],EC tube formation,[2],inhibited
PRKLYDY (Kr5),attachment to GRP78,[3],can attach
same,apoptosis of endothelial cells,endothelial cells,induce apoptosis
"Ac-KSLSLSLSLSLSLKGPRKLYDY-NH2 [SL-Kr5, K-(SL)6-K-G-PRKLYDY]","viability at 72 h, 800 µM",[4],55%
same,cytocompatibility compared to the media+sucrose control,NIH 3T3 fibroblasts; 8 μM SL-Kr5 in media,little to no difference
same,cytocompatibility compared to the media+sucrose control,NIH 3T3 fibroblasts; 80 μM SL-Kr5 in media,little to no difference
same,non-specific toxicity in stromal cells,"NIH 3T3 fibroblasts; fibroblast cultures, increasing peptide concentrations",did not induce non-specific toxicity
same,cellular proliferation versus controls,NIH 3T3 fibroblasts; over a range of concentrations,comparable cellular proliferation to controls
same,fibrous capsule,Female Wistar rats,no fibrous capsule apparent
